Reference: ChEMBL document CHEMBL5653615 (J Biol Chem, 2013)

Experiments:
[1] = molecular target: T1, Aurora kinase C (Homo sapiens) (UniProt Q9UQB9); test: Inhibition of human Aurora C at 500 nM by HotSpot assay relative to control
T1 sequence (whole entry): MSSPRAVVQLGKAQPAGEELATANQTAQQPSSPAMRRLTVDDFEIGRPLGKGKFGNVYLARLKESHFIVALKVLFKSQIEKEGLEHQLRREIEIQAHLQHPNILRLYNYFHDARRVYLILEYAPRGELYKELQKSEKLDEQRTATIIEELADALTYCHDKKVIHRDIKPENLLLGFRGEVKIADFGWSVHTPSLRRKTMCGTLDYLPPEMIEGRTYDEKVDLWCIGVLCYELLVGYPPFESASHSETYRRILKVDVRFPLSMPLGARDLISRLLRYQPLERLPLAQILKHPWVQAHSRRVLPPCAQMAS

[2] = molecular target: Tyrosine-protein kinase Blk (Homo sapiens) (UniProt P51451); test: Inhibition of human BLK at 500 nM by HotSpot assay relative to control
[3] = molecular target: T2, Ephrin type-A receptor 3 (Homo sapiens) (UniProt P29320); test: Inhibition of human EPHA3 at 500 nM by HotSpot assay relative to control
T2 sequence (whole entry): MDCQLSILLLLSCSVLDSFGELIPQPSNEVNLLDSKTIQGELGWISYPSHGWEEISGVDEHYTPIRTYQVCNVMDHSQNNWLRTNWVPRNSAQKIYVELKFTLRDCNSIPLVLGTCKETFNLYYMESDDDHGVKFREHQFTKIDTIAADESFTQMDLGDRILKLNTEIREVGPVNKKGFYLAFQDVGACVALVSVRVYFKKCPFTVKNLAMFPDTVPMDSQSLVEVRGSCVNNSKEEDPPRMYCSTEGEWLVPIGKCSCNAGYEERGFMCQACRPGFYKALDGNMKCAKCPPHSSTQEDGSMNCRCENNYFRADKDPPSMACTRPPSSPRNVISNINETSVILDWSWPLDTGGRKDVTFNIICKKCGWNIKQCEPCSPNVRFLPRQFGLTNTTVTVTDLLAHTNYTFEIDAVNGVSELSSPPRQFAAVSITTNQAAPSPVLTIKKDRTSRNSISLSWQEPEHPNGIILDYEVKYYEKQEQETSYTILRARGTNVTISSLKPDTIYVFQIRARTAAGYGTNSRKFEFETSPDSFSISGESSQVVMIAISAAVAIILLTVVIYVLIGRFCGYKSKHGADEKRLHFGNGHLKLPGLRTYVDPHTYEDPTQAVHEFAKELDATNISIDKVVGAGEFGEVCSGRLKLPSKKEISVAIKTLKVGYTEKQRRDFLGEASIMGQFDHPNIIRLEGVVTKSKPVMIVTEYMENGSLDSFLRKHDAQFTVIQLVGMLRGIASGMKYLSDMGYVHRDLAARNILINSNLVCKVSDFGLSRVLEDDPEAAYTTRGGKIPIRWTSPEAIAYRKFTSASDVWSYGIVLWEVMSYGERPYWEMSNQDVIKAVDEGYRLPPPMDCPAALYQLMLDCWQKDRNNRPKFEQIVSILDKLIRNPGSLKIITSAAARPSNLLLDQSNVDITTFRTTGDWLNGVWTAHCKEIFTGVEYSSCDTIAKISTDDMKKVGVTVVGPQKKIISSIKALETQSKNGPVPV

[4] = molecular target: T3, Ephrin type-B receptor 3 (Homo sapiens) (UniProt P54753); test: Inhibition of human EPHB3 at 500 nM by HotSpot assay relative to control
T3 sequence (whole entry): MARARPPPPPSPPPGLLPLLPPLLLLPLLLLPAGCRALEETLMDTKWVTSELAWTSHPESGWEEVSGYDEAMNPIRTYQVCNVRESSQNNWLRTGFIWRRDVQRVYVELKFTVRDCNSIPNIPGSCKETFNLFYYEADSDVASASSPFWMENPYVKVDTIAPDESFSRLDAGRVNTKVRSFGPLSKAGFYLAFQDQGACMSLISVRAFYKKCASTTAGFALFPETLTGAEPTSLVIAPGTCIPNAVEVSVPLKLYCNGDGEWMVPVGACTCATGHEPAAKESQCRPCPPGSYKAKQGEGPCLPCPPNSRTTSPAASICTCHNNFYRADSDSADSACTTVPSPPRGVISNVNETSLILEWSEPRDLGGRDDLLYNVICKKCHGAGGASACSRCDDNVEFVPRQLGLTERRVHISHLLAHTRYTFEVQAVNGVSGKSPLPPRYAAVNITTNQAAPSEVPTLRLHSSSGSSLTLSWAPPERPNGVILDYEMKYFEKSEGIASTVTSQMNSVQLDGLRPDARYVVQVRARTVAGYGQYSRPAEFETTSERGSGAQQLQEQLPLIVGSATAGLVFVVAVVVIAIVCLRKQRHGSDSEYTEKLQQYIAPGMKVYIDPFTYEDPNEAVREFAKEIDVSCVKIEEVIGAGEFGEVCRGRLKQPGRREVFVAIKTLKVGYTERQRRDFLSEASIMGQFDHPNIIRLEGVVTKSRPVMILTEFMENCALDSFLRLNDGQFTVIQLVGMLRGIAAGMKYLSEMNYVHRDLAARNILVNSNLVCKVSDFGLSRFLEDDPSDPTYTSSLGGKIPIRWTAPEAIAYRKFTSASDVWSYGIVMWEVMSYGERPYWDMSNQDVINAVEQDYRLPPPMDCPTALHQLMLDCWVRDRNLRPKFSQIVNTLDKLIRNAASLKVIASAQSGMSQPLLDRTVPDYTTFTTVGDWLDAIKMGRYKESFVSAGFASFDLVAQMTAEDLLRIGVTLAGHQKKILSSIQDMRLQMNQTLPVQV

[5] = molecular target: T4, Lymphokine-activated killer T-cell-originated protein kinase (Homo sapiens) (UniProt Q96KB5); test: Inhibition of human TOPK at 500 nM by HotSpot assay relative to control
T4 sequence (whole entry): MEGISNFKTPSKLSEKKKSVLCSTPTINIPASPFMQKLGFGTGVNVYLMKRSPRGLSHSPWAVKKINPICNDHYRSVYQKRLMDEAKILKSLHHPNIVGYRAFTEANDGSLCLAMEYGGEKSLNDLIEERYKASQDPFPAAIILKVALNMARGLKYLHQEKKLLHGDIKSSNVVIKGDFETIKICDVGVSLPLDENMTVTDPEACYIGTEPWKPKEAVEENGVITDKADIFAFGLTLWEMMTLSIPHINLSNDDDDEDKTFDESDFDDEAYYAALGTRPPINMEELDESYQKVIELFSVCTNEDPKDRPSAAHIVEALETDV

Chain of Tyrosine-protein kinase Blk (Homo sapiens) (P51451 2-505 limits assumed): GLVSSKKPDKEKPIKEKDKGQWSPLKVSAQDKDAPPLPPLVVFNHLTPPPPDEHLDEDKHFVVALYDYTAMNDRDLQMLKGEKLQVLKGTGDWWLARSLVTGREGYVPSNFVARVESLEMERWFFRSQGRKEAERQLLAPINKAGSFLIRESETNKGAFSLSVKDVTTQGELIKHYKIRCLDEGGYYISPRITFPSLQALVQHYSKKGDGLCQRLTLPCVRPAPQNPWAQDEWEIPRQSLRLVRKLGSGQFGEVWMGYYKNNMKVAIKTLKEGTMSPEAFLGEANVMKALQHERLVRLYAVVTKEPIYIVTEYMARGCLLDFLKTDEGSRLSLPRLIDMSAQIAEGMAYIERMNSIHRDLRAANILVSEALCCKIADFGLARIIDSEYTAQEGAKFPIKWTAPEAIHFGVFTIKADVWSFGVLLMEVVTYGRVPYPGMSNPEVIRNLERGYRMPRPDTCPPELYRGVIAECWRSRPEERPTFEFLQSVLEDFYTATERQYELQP

SMILES	inhibition [1]	inhibition [2]	inhibition [3]	inhibition [4]	inhibition [5]
Oc1n[nH]c2nnc(-c3c(-c4ccccc4)nn4ccccc34)cc12	2.04%	2.09%	5.45%	-1.08%	-8.9%
Nc1n[nH]c2nnc(-c3c(-c4ccccc4)nn4ccccc34)cc12	3.59%	1.92%	2.18%	3.21%	4.99%
